# In patent US11083735B2, “Methods for treating sleep disorders, sleep disturbances, and related symptoms using aminosterol compositions” (Enterin, Inc., priority 2017, dated 2021):
# Where “and” joins values, the source holds several entries; their conditions need not be identical. Equal entries are not always repeated.
# Legend:
# [1] = Preclinical oral studies in rats (bioavailability, portal blood, tolerability)
# patients with PD = experiment: Phase 2 trial Stage 2: CNS symptoms (UPDRS, MMSE, BDI-II, PDHQ, hallucinations); type: in vivo, human
# Source text: (8) Beck Depression Inventory (BDI-II);
# (9) Unified Parkinson's Disease Rating Scale (UPDRS), which consists of 42 items in four subscales (Part I=Non-Motor Aspects of Experiences of Daily Living (nM-EDL) (1.1 cognitive impairment, 1.2 hallucinations and psychosis, 1.3 depressed mood, Part II=Motor Aspects of Experiences of Daily Living (M-EDL), Part III=Motor Examination, and Part IV=Motor Complications;
# (10) Mini Mental State Examination (MMSE);
# (12) The University of Miami Parkinson's Disease Hallucinations Questionnaire (UM-PDHQ);
# Exploratory end-points, in addition to constipation, included for example, (i) depression assessed using the Beck Depression Inventory (BDI-II) (Steer et al. 2000) and Unified Parkinson's Disease Rating Scale (UPDRS); (ii) cognition assessed using the Mini Mental State Examination (MMSE) (Palsteia et al. 2018), Unified Parkinson's Disease Rating Scale (UPDRS), and Trail Making Test (TMT); (iii) sleep and REM-behavior disorder (RBD) using a daily sleep diary, I-Button Temperature Assessment, a REM sleep behavior disorder (RBD) questionnaire (RBDQ) (Stiasny-Kolster et al. 2007), and the UPDRS; (iv) hallucinations assessed using the PD hallucinations questionnaire (PDHQ) (Papapetropoulos et al. 2008), the UPDRS, and direct questioning; (v) fatigue using the Parkinson's Disease Fatigue Scale (PFS-16) and the UPDRS; (vi) motor functions using the UPDRS; and (vii) non-motor functions using the UPDRS.
# Assessments were made at baseline and at the end of the fixed dose and washout periods. Circadian system status was evaluated by continuously monitoring wrist skin temperature (Thermochron iButton DS1921H; Maxim, Dallas) following published procedures (Sarabia et al. 2008).
# CNS Symptoms in Stage 2: An exploratory analysis was done with respect to the sleep data, the body temperature data, mood, fatigue, hallucinations, cognition and other motor and non-motor symptoms of PD. Continuous measurements within a subject were compared with a paired t-test and continuous measurements between subject groups were compared with a two-group t-test. Categorical data were compared with a chi-squared test or a Fisher's exact test if the expected cell counts are too small for a chi-squared test.
# CNS symptoms: CNS symptoms were evaluated at baseline and at the end of the fixed dose period and the wash-out period (Table 16). Total UPDRS score was 64.4 at baseline, 60.6 at the end of the fixed dose period and 55.7 at the end of the wash-out period (p=0.002); similarly, the motor component of the UPDRS improved from 35.3 at baseline to 33.3 at the end of fixed dose to 30.2 at the end of wash-out (p=0.006). MMSE improved from 28.4 at baseline to 28.7 during treatment and to 29.3 during wash-out (p=0.0006). […] PDHQ improved from 1.3 at baseline to 1.8 during treatment and 0.9 during wash-out (p=0.03). Hallucinations were reported by 5 patients at baseline and delusions in 1 patient. […] The frequency of arm or leg thrashing reported in the sleep diary diminished progressively from 2.2 episodes/week at baseline to 0 at maximal dose. […] Unlike stool-related indices, the improvement in many CNS symptoms persisted during wash-out.
# [2] = tested on: patients with PD and constipation; experiment: Phase 2 trial Stage 1 (single escalating dose): prokinetic response (CSBM within 24 hours); type: in vivo, human
# Experimental: FIGS. 16A-16B show prokinetic activity of squalamine (ENT-01, a synthetic squalamine salt comprising squalamine as the active ion). […] Patients with baseline CSBM<1 required a higher dose (mean, 192 mg) of squalamine than patients with CSBM≥1 (mean, 120 mg).
# Tolerability limits included diarrhea or vomiting.
# [3] = tested on: colons from WT (1 yr old FVB/NJ) mice; experiment: Isolated colon motility, WT mice; set-up: species or system mouse
# Source text: FIGS. 14A-14B show additional effects of squalamine in mice.
# Parkinson's disease is associated with varying degrees of constipation, typically beginning decades before diagnosis, and all too often has a profound negative impact on quality of life. It is believed that the ENS in PD is damaged earlier but by the same processes that damage the neurons of the CNS. In our clinical experience oral administration to several individuals with advanced Parkinson's disease corrected long standing constipation within days of initiation of treatment. We explored whether the human experience could be reproduced in the mouse. In the experiments illustrated below studies of colonic motility were conducted using organs from WT (1 yr old FVB/NJ) or PD mice, in which the murine αSynuclein gene has been excised and replaced by several copies of the human αSynuclein gene driven by the normal murine promoter.
# The isolated colon from the PD strain presents a more sluggish peristaltic wave than that from the WT animal (black columns).
structure (smiles),measurement,setting,value
"CC(C)[C@@H](CC[C@@H](C)[C@H]1CC[C@H]2[C@@H]3[C@H](O)C[C@H]4C[C@@H](NCCCNCCCCN)CC[C@]4(C)[C@H]3CC[C@]12C)OS(=O)(=O)O (single isomer, unassigned; ent-01) [ENT-01]",absorption from the intestine,[1]; portal blood concentrations following oral dosing of radioactive ENT-01 to rats,low
same,tolerability,[1]; rats,well tolerated
same,oral bioavailability,"[1]; rats, preclinical studies",about 0.1%
same,"PDHQ, Fixed dose (Mean, SD)","patients with PD; Stage 2, end of fixed dose period, baseline 1.3 (2.99)",1.8
same,"BDI-II, Fixed dose (Mean, SD)","patients with PD; Stage 2, end of fixed dose period, baseline 10.9 (7.12)",9.9
same,"UPDRS Part 1 (NMS), Fixed dose (Mean, SD)","patients with PD; Stage 2, end of fixed dose period, baseline 11.6 (6.51)",10.6
same,"UPDRS Part 2 (Daily living), Fixed dose (Mean, SD)","patients with PD; Stage 2, end of fixed dose period, baseline 14.9 (8.11)",14.7
same,"MMSE, Fixed dose (Mean, SD)","patients with PD; Stage 2, end of fixed dose period, baseline 28.4 (1.75)",28.7
same,"UPDRS Part 3 (Motor), Fixed dose (Mean, SD)","patients with PD; Stage 2, end of fixed dose period, baseline 35.3 (14.35)",33.3
same,"UPDRS Total, Fixed dose (Mean, SD)","patients with PD; Stage 2, end of fixed dose period, baseline 64.4 (23.72)",60.6
same,"PDHQ, Wash-out (Mean, SD)","patients with PD; Stage 2, end of wash-out period, baseline 1.3 (2.99)",0.9 (2.33)
same,"BDI-II, Wash-out (Mean, SD)","patients with PD; Stage 2, end of wash-out period, baseline 10.9 (7.12)",8.7 (5.19)
same,"UPDRS Part 1 (NMS), Wash-out (Mean, SD)","patients with PD; Stage 2, end of wash-out period, baseline 11.6 (6.51)",9.5 (5.27)
same,"UPDRS Part 2 (Daily living), Wash-out (Mean, SD)","patients with PD; Stage 2, end of wash-out period, baseline 14.9 (8.11)",14.1 (8.21)
same,"MMSE, Wash-out (Mean, SD)","patients with PD; Stage 2, end of wash-out period, baseline 28.4 (1.75)",29.3 (1.06)
same,"UPDRS Part 3 (Motor), Wash-out (Mean, SD)","patients with PD; Stage 2, end of wash-out period, baseline 35.3 (14.35)",30.2 (13.23)
same,"UPDRS Total, Wash-out (Mean, SD)","patients with PD; Stage 2, end of wash-out period, baseline 64.4 (23.72)",55.7 (23.69)
same,hallucinations in one patient,patients with PD; at 100 mg (prokinetic dose of this patient 175 mg),disappeared
same,BDI-II,patients with PD; at wash-out,8.7
same,patients in whom hallucinations and delusions improved or disappeared,patients with PD; during treatment,5 of 6
same,PDHQ,"patients with PD; during treatment, baseline 1.3",1.8
same,BDI-II,"patients with PD; during treatment, baseline 10.9",9.9
same,MMSE,"patients with PD; during treatment, baseline 28.4",28.7
same,MMSE,patients with PD; during wash-out,29.3
same,PDHQ,patients with PD; during wash-out,0.9
same,motor component of the UPDRS,"patients with PD; end of fixed dose, baseline 35.3",33.3
same,Total UPDRS score,"patients with PD; end of the fixed dose period, baseline 64.4",60.6
same,Total UPDRS score,patients with PD; end of the wash-out period,55.7
same,motor component of the UPDRS,patients with PD; end of wash-out,30.2
same,time free of hallucinations following cessation of dosing,patients with PD; one patient,1 month
same,time without return of hallucinations/delusions following discontinuation,patients with PD; single patients,4 weeks and 2 weeks
same,cumulative response rate,[2]; 25 mg,25%
same,cumulative response rate,[2]; 200 mg (maximum),80%
CC(C)[C@@H](CC[C@@H](C)[C@H]1CC[C@H]2[C@@H]3[C@H](O)C[C@H]4C[C@@H](NCCCNCCCCN)CC[C@]4(C)[C@H]3CC[C@]12C)OS(=O)(=O)O [squalamine],speed of the colonic peristaltic wave,"[3]; WT colon, FIG. 14B",stimulates the speed of the colonic peristaltic wave
same,force of peristaltic contractions,"[3]; WT colon, squalamine added to lumen, FIG. 14A",increases the force of contractions
same,colon migrating motor complex (MMC) peak pressure waves,"[3]; intraluminal application, legend of FIG. 14A",no apparent effect
same,MMC propagation velocity from oral to anal,"[3]; intraluminal application, legend of FIG. 14B",increased
